Measurements as given in the supplement of paper PMC10307832.

Experiments:
Test in all cases: relative viability (nuclei count vs DMSO), 5 days (fraction); higher = more cells survive
[1] = compound: CC1=CN=C(N=C1C2=CNC(=C2)C(=O)N[C@H](CO)C3=CC(=CC=C3)Cl)NC4=C(C=C(C=C4)F)Cl [VX-11e] + Nc1ncn([C@H]2C[C@H](O)[C@@H](CO)O2)c(=O)n1 [Decitabine] (partner 2 µM)
Procedure, shortened: (§1)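 Dosing by pin tool came one day after lung cancer cell lines were seeded in 1536-well plates, using either one drug or a fixed anchor-drug dose plus five library-drug doses (not always all listed) in √10 steps. After 5 days, nuclei were counted on 4× images. Relative viability is treated-well nuclei count divided by vehicle-well nuclei count, and values are medians of duplicate plates.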

[2] = compound: CC1=CN=C(N=C1C2=CNC(=C2)C(=O)N[C@H](CO)C3=CC(=CC=C3)Cl)NC4=C(C=C(C=C4)F)Cl [VX-11e] + Cc1nc(Nc2ncc(C(=O)Nc3c(C)cccc3Cl)s2)cc(N2CCN(CCO)CC2)n1 [Dasatinib] (partner 0.075 µM)
Procedure, shortened: as §1

[3] = compound: CC1=CN=C(N=C1C2=CNC(=C2)C(=O)N[C@H](CO)C3=CC(=CC=C3)Cl)NC4=C(C=C(C=C4)F)Cl [VX-11e] + COc1cc2c(Oc3ccc(NC(=O)C4(C(=O)Nc5ccc(F)cc5)CC4)cc3F)ccnc2cc1OCCCN1CCOCC1 [Foretinib] (partner 0.25 µM)
Procedure, shortened: as §1

[4] = compound: CC1=CN=C(N=C1C2=CNC(=C2)C(=O)N[C@H](CO)C3=CC(=CC=C3)Cl)NC4=C(C=C(C=C4)F)Cl [VX-11e] + CCNC(=O)c1noc(-c2cc(C(C)C)c(O)cc2O)c1-c1ccc(CN2CCOCC2)cc1 [Luminespib] (partner 0.01 µM)
Procedure, shortened: as §1

Cell Line	relative viability ([1]; first compound 0.1265 µM)	relative viability ([1]; first compound 0.4 µM)	relative viability ([1]; first compound 1.265 µM)	relative viability ([1]; first compound 4 µM)	relative viability ([2]; first compound 0.04 µM)	relative viability ([2]; first compound 0.1265 µM)	relative viability ([2]; first compound 0.4 µM)	relative viability ([2]; first compound 1.265 µM)	relative viability ([2]; first compound 4 µM)	relative viability ([3]; first compound 0.04 µM)	relative viability ([3]; first compound 0.1265 µM)	relative viability ([3]; first compound 0.4 µM)	relative viability ([3]; first compound 1.265 µM)	relative viability ([3]; first compound 4 µM)	relative viability ([4]; first compound 0.04 µM)	relative viability ([4]; first compound 0.1265 µM)	relative viability ([4]; first compound 0.4 µM)	relative viability ([4]; first compound 1.265 µM)	relative viability ([4]; first compound 4 µM)	relative viability ([1]; first compound 0.04 µM)
NCI-H2342	0.797	0.752	0.787	0.6	0.31	0.282	0.285	0.307	0.348	1.15	1.1	0.98	1.07	0.893	0.79	0.76	0.558	0.617	0.747	
NCI-H2347	0.554	0.504	0.534	0.661	0.221	0.314	0.126	0.232	0.197	0.761	0.877	0.46	0.67	0.652	0.293	0.548	0.323	0.269	0.366	0.604
NCI-H2405	0.733	0.305	0.776	0.443	0.204	0.186	0.15	0.151	0.128	1.04	1.01	1.05	1.08	0.455	0.798	0.719	0.395	0.717	0.296	0.761
NCI-H3122	0.484	0.335	0.39	0.209	0.7	0.637		0.476	0.224	0.948	0.897		0.851	0.487	0.0662	0.0869		0.0911	0.0987	0.418
PC-3 [JPC-3]	0.813	0.809	0.788	0.705	0.904	0.903	0.886	1.16	0.883	1.06	0.972	1.05	1.08	0.769	0.627	0.595	0.66	0.744	0.591	0.839
PC-14	0.19	0.202	0.247	0.235	0.359	0.237	0.168	0.319	0.109	1.08	1.05	0.981	1.07	0.708	0.199	0.173		0.112	0.172	0.243
RERF-LC-KJ	0.703	0.592	0.807	0.62	0.872	0.758	0.867	0.71	0.59	1.01	0.886	0.901	0.856	0.813	1.32	1.06	1.05	1.21	1.11	0.707
SK-LU-1	0.589	0.472	0.668	0.308	0.202	0.184		0.147	0.108	0.882	0.779		0.574	0.224	0.179	0.196		0.199	0.177	0.619
SK-MES-1	0.384	0.363	0.4	0.272	0.403	0.332	0.393	0.188	0.185	1.03	0.881	0.857	1.02	0.419	0.838	0.634	0.766	0.406	0.262	0.341
SW 900	0.491		0.529	0.455	0.59	0.588	0.137	0.585	0.385	0.851	0.943	0.969	0.794	0.519	0.211	0.186	0.174	0.175	0.173	0.443
SW 1573	0.446	0.363	0.372	0.22	0.656	0.641	0.718	0.424	0.28	0.947	0.902	0.78	0.86	0.708	0.233	0.206	0.23	0.384	0.133	0.384
UMC-11	0.495	0.472	0.454	0.594	0.44	0.42	0.439	0.587	0.464	1.05	0.946	0.986	0.976	0.905	1.01	1.02	1.02	0.948	0.94	
